Measurements: US20190030114A1, “ISOFORM-SPECIFIC CALPAIN INHIBITORS, METHODS OF IDENTIFICATION, AND USES THEREOF” (WESTERN UNIVERSITY OF HEALTH SCIENCES, priority 2014, published 2019)

Tested on: retina (GCL, IPL, RGC)
Assay: acute IOP elevation (acute angle closure glaucoma model), systemic (i.p.) C2l
Format: in vivo, mice
Description: FIG. 11A: Calpain-2 inhibition reduces, while calpain-1 knockout exacerbates, cell death in the ganglion cell layer induced by acute IOP elevation. H&E staining of retinal sections from the right eye of vehicle- or C2l-injected wild-type and calpain-1 KO mice and the left eye where sham surgery was performed. Vehicle, 10% DMSO in PBS, was injected i.p. 30 min before and 2 h after acute IOP elevation. Pre- and post-injection C2l (0.3 mg/kg) was done i.p. 30 min before and 2 h after acute IOP elevation. For the One post injection group, C2l was injected 2 h after IOP elevation. For the Two post inj group, C2l was injected 2 and 4 h after IOP elevation. H&E staining was performed 3 days after surgery. Scale bar=30 μm.
Six sections cut through the optic disc of each eye were analyzed. Cell numbers in GCL at a distance between […] the optic disc were counted. Cell densities in 6 sections from each eye were averaged. Data represent means±S.E.M. n=7 for vehicle, n=3 for pre and post inj, n=10 for one post inj, n=6 for two post inj, n=4 for KO. ns, no significant difference. ***p<0.001, Two-tailed t-test.
FIG. 11C: Comparison of GCL cell survival rates from the right eye of vehicle- or C2l-injected wild-type and calpain-1 KO mice and the left eye where sham surgery was performed, as described in FIG. 11A. Survival rate for each mouse was calculated as the ratio of cell density in GCL of IOP-elevated eye to cell density in GCL of sham eye. *p<0.05, **p<0.01 versus vehicle, One-way ANOVA followed by Bonferroni test.
FIG. 11D: Brn-3a immunostaining in the retina of vehicle- or C2l-injected WT mice. Acute IOP elevation was performed on the right eye, while sham surgery was performed on the left eye. Vehicle, 10% DMSO, or C2l, C2l (0.3 mg/kg) was injected i.p. 2 h after acute IOP elevation. Brn3a staining was performed 3 days after surgery. Scale bar=60 μm.
FIG. 11E: Quantification of brn3a staining, as described in FIG. 11D. Brn3a-positive cells in GCL were counted. Data represents mean±S.E.M. n=4 for vehicle, n=5 for C2l. Ns, no significant difference, **p<0.01 sham versus IOP elevation, two-tailed t-test.
FIG. 11F: Comparison of survival rates. n=4 for vehicle, n=5 for C2l. **p<0.01 vehicle versus C2l, two-tailed t-test.
FIG. 11G: Representative immunoblots of PHLPP1 and STEP33 in retina tissue of WT, calpain-1 KO and C2l-injected mice collected 3 h after sham surgery or acute IOP elevation. C2l (0.3 mg/kg) was injected systemically 2 h after sham surgery or IOP elevation.
FIG. 11H: Quantitative analysis of the levels of PHLPP1 and STEP33 and ratios of pAkt/Akt for each group. Results represent means±S.E.M. of 4 experiments. *p<0.05, **p<0.01, ***p<0.001, ns no significant difference, One-way ANOVA followed by Bonferroni test.
Sequential activation of calpain-1 and calpain-2 in retina after acute IOP elevation. The following IOP elevation studies were performed using a model of acute angle closure glaucoma consisting of increasing intraocular pressure (IOP) to 110 mm Hg for 60 min by inserting a needle connected to an elevated reservoir of saline into the anterior chamber. This model reproduced several features of acute angle closure, including, ischemia of retina and iris as noted by absence of red reflex and pupillary response to light. Anterior chamber synechae, resulting in a narrow angle and adhesions between the iris and the cornea, increased cells and flare in the anterior chamber and increased corneal thickness due to corneal edema. Some of these changes persisted over 3 days of observation. Eyes were collected at 0, 2, 4 and 6 h after IOP elevation and retinal frozen sections were prepared and processed for immunohistochemistry with SBDP antibody. In WT mice, SBDP was clearly present in IPL at 2, 4 and 6 h after IOP elevation. However in calpain-1 KO mice, SBDP was only evident in the IPL at 4 and 6 h but not at 2 h (FIG. 10A and C). […]

[1] = 0.3 mg/kg i.p. 30 min before and 2 h after IOP elevation (pre and post inj), 3 days, n=3
[2] = i.p. 2 and 4 h after IOP elevation (two post inj), n=6
[3] = i.p. 2 h after IOP elevation (one post inj), n=10

In the case of CCC(NC(=O)C(CC(C)C)NC(=O)OCc1ccccc1)C(=O)C(=O)NCc1cc(OC)cc(OC)c1 (racemic) [Formula 1, Z-Leu-Abu-CONH—CH2-C6H3 (3, 5-(OMe)2)], the “cell counts in GCL, IOP-elevated eye” value [1] is reported as 105.8±4.5 cells/mm, the “cell counts in GCL, sham eye” value [1] is reported as 125.1±10.5 cells/mm and the “SBDP signal in IPL at 4 and 6 h” value (0.3 mg/kg i.p. 2 h after IOP elevation, WT mice) is reported as “significantly reduced”. The “cell survival rate (cell count in IOP-elevated eye to sham eye) versus vehicle” value (all three C2l injected groups) was “significantly increased”, the “cell counts in GCL, IOP-elevated eye” value [2] was 96.1±6.3 cells/mm and the “cell counts in GCL, sham eye” value [2] was 118.6±3.7 cells/mm. For the same molecule, the “cell counts in GCL, IOP-elevated eye” value [3] was 86.4±7.0 cells/mm, the “cell counts in GCL, sham eye” value [3] was 110.6±3.6 cells/mm and the “PTEN degradation at 4 and 6 h” value (injected 2 h after IOP elevation, WT mice) was “completely blocked”.
